Experimental data reported in article PMC11238318 (ACS Omega, 2024).

Target: Pyruvate dehydrogenase kinase 3 (PDK3) (Homo sapiens, UniProt Q15120)
Experiment: intrinsic Trp fluorescence quenching of purified PDK3
Type: binding

Pyruvate dehydrogenase kinase 3 (PDK3), sequence (Q15120 whole entry): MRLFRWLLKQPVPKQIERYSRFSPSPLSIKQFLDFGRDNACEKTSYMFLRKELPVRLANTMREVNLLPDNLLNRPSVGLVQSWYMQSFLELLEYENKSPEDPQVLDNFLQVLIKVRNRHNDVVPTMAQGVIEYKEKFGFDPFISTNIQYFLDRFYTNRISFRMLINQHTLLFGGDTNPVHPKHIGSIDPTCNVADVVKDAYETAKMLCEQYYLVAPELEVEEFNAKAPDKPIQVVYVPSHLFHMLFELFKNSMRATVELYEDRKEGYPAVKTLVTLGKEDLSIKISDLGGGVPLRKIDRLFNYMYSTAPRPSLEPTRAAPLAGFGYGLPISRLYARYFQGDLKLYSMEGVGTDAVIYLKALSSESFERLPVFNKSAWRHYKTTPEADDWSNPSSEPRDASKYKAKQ

A Kd of 8.77 µM was found for O=c1c(O)c(-c2cc(O)c(O)c(O)c2)oc2cc(O)cc(O)c12 [MT, Myricetin] in this work.
